Test results: patent US20240174690A1, “ANNULATED 2-AMINO-3-CYANO THIOPHENES AND DERIVATIVES FOR THE TREATMENT OF CANCER” (BOEHRINGER INGELHEIM INTERNATIONAL GMBH, priority 2021, published 2024)

Legend:
[1] = target: KRAS (G12D)::SOS1 (Homo sapiens (Human), UniProt P01116, G12D); experiment: KRAS::SOS1 AlphaScreen binding assay, KRAS G12D
In short: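 AlphaScreen measurement of compound disruption of biotinylated, GDP-loaded KRAS 1-169 (10 nM; G12C 7.5 nM) binding to GST-SOS1 564-1049 (5 nM with G12D/G12C, 10 nM otherwise), with 10 μM GDP in PBS/0.1% BSA/0.05% Tween 20. Timing was 30 min compound preincubation, then 60 min with beads at room temperature; top concentration 100 μM, 4-parameter IC50.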

[2] = system: NCI-H2122 cells; experiment: NCI-H2122 CTG proliferation assay (120 h) (NSCLC, G12C); type: cell-based; conditions: Homo sapiens
In short: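 Proliferation was read by CellTiter-Glo luminescence after 120 h of compound exposure, starting one day after seeding 200 NCI-H2122 (G12C) cells per well in RPMI/10% FCS. RLU relative to DMSO wells gave percent viability, and four-parameter nonlinear regression gave IC50.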

[3] = Plasma protein binding assay (PPB), equilibrium dialysis, 10% FCS in PBS; type: in vitro ADME; conditions: bovine, read-out: PPB 10% FCS (% fu)
In short: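 Test compound (1-10 μmol/L) in 10% FCS in PBS was dialysed for 3-5 h at 37° C versus PBS ± dextran across a semipermeable membrane. LC-MS of both compartments after protein precipitation gave Cserum and Cbuffer, from which the unbound fraction fu was derived.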

Sequence of KRAS (G12D)::SOS1 (P01116 other isoform, or with tags, fused parts or gaps G12D): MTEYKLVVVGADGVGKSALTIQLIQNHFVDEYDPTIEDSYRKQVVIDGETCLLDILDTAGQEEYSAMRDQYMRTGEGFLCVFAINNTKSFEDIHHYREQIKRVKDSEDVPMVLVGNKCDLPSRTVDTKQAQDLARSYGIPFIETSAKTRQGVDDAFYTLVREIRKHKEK

Structure (SMILES)	IC50 [1] [nM]	IC50 [2] [nM]	fraction unbound [3]
C[C@H](Oc1cc(-n2cc(-c3cccnc3)nn2)nc(-c2noc3c2CCC[C@@]32CCCc3sc(N)c(C#N)c32)n1)[C@@H]1CCCN1C [II-123]	8	878	0.11
C[C@H](Oc1cc(-c2cn[nH]c2)nc(-c2noc3c2CCC[C@@]32CCCc3sc(N)c(C#N)c32)n1)[C@@H]1CCCN1C [II-87]	3	1990	0.26
C[C@H](Oc1cc(C2=CCOCC2)nc(-c2noc3c2CCC[C@@]32CCCc3sc(N)c(C#N)c32)n1)[C@@H]1CCCN1C [II-67]	3	1300	0.23
C[C@H](Oc1cc(N2CCC[C@@H](O)C2)nc(-c2noc3c2CCC[C@@]32CCCc3sc(N)c(C#N)c32)n1)[C@@H]1CCCN1C [II-59]	2	1350	0.64
C[C@H](Oc1cc(N2C[C@H](C)N[C@@H](C)C2)nc(-c2onc3c2CCC[C@@]32CCCc3sc(N)c(C#N)c32)n1)[C@@H]1CCCN1C [I-6]	1	3380	0.94
C[C@H](Oc1cc(-c2cccc(CO)c2)nc(-c2noc3c2CCC[C@@]32CCCc3sc(N)c(C#N)c32)n1)[C@@H]1CCCN1C [II-97]	13	2020	0.13
C[C@H](Oc1cc(N2CC[C@H](N(C)C)C2)nc(-c2onc3c2CCC[C@@]32CCCc3sc(N)c(C#N)c32)n1)[C@@H]1CCCN1C [I-11]	1	2560	0.33
CO[C@@H]1C[C@@H]([C@H](C)Oc2cc(-n3ccnc3)nc(-c3noc4c3CCC[C@@]43CCCc4sc(N)c(C#N)c43)n2)N(C)C1 [II-58]	3	904	0.31
C[C@H](Oc1cc(-c2cnn(C)n2)nc(-c2noc3c2CCC[C@@]32CCCc3sc(N)c(C#N)c32)n1)[C@@H]1CCCN1C [II-86]	5	2080	0.34
C[C@H](Oc1cc(C2CCOCC2)nc(-c2noc3c2CCC[C@@]32CCCc3sc(N)c(C#N)c32)n1)[C@@H]1CCCN1C [II-76]	3	1300	0.61
C[C@H](Oc1cc(-n2cc3c(n2)CCNC3)nc(-c2noc3c2CCC[C@@]32CCCc3sc(N)c(C#N)c32)n1)[C@@H]1CCCN1C [II-53]	1	3690	0.29
C[C@H](Oc1cc(-c2cncnc2)nc(-c2noc3c2CCC[C@@]32CCCc3sc(N)c(C#N)c32)n1)[C@@H]1CCCN1C [II-82]	6	2680	0.66
Cc1nccn1-c1cc(O[C@@H](C)[C@@H]2CCCN2C)nc(-c2noc3c2CCC[C@@]32CCCc3sc(N)c(C#N)c32)n1 [II-79]	2	1270	0.15
C[C@H](Oc1cc(N2CCOC3(COC3)C2)nc(-c2noc3c2CCC[C@@]32CCCc3sc(N)c(C#N)c32)n1)[C@@H]1CCCN1C [II-77]	1	1780	0.16
C[C@H](Oc1cc(N2C[C@H](C)N[C@@H](C)C2)nc(-c2noc3c2CCC[C@@]32CCCc3sc(N)c(C#N)c32)n1)[C@@H]1CCCN1C [II-56]	1	3190	0.48
COC(=O)c1ccc(-c2cc(O[C@@H](C)[C@@H]3CCCN3C)nc(-c3noc4c3CCC[C@@]43CCCc4sc(N)c(C#N)c43)n2)o1 [II-114]	3	680	0.07
C[C@H](Oc1cc(-n2ccc(Br)n2)nc(-c2noc3c2CCC[C@@]32CCCc3sc(N)c(C#N)c32)n1)[C@@H]1CCCN1C [II-110]	3	953	0.01
